The nature of data set [1]: Association constant of IPN with cyclodextrin by phase-distribution method. The format is binding. The note with it: 310.2 K. As to the method:
The association constants (KC) of IPN with cyclodextrins were determined by a partition coefficient (phase-distribution) method. Possible partition of CDs to the 1-octanol or n-hexane phases was assumed to be negligible since both cyclodextrins used in this study have high aqueous solubility (>600 mg∙mL^−1). The KC values of the complexes between the drug and each CD were calculated assuming that in the presence of CD the distribution coefficient ( DappOrg/(buf+CD) ) is defined as:(8) DappOrg/(buf+CD)=C2Org/C2buf(drug)+C2buf(drug•CD) where C2buf(drug) and C2buf(drug•CD) are the concentrations of the drug and drug complex with CD in the aqueous phase. The following equation was applied:(9) DappOrg/(buf+CD)/DappOrg/buf=1+KC⋅CCD where DappOrg/buf and DappOrg/(buf+CD) are the distribution coefficients of a compound in the absence and in the presence of CD in the aqueous phase, respectively. Similarly to the phase-solubility method of the stability constants determination, but bearing in mind an opposite trends in solubility and organic solvent/water partition (the higher the solubility, the lower the distribution coefficient), the following dependence was plotted to obtain the association constant (KC) and the stoichiometric ratio of the complex (α):(10) log(DappOrg/buf−DappOrg/(buf+CD)/DappOrg/buf)=log(KC)+α⋅log(CCD) where CCD is the concentration of cyclodextrin in the aqueous phase of the distribution system and the y-intercept produces log(KC).
To approve the validity of the distribution results interpretation we used the distribution coefficients at different CDs concentrations for the determination of the association constants of IPN with the studied cyclodextrins. As shown by Másson et al. for hydrophilic drugs (a case of IPN), this method can be successfully used for the simultaneous determination of the association constant with cyclodextrins and partition coefficient. The association constants (KC) of IPN with HP-β-CD and M-β-CD were determined according to the phase-distribution method using Equations (8)–(10). To this end, the plots of the dependences (Equation (10)) were constructed and are illustrated in Figure 6.

Data set [2] in a line: Thermodynamic functions of the hypothetical n-hexane → 1-octanol transferring. The format is physicochemical. As to the method:
The apparent dissolution Gibbs energies ( ΔGsol ) and entropies ( ΔSsol ) were calculated at a standard temperature of 298.2 K and 310.2 K:(4) ΔGsol298.2/310.2=−RT(lnX2298.2/310.2) (5) ΔGsol298.2/310.2=ΔHsol0−TΔSsol298.2/310.2 where R is the universal gas constant.
The following conclusions can be derived from Table 3. The dissolution process is more favorable in 1-octanol as compared to n-hexane. In both solvents it is determined by the enthalpy, but the difference between the enthalpy and entropy contributions is not essential (especially in 1-octanol). The greater positive enthalpy term is a driving force of the unfavorable dissolution processes in these two solvents. A more than two-fold difference ΔHsol > TΔSsol exists in n-hexane, and a favorable positive entropy value is not enough to overlap the enthalpy one. From the dissolution thermodynamic functions, the hypothetical transfer n-hexane→1-octanol simulating the blood-brain penetration can be disclosed. As follows from Table 3, the transferring is favorable (negative ΔGtr value), in that the lower temperature facilitates the process. The hypothetical transition from n-hexane to 1-octanol is driven and determined by the negative enthalpy (~80%). A small negative entropy contribution— TΔStr indicates some ordering of the system upon the movement of the IPN molecules from n-hexane to 1-octanol.

Data set [3] is described as follows: Shake-flask distribution in the 1-octanol/buffer pH 7.4 system. The format is physicochemical. As to the method:
(§1) Apparent distribution coefficients of the compounds were measured in two systems: 1-octanol/buffer pH 7.4 and n-hexane/buffer pH 7.4 by the shake-flask technique at 310.2 ± 0.5 K in the absence (for IPN, INZ and iNAM) and in the presence of cyclodextrins (HP-β-CD and M-β-CD) in the aqueous phase (for IPN only). The concentrations of cyclodextrins were: 0.0115 M, 0.025 M and 0.035 M. The experiments were carried out according to the literature. In brief, the following experimental procedure was performed. Aqueous buffer pH 7.4 and organic solvent (1-octanol or n-hexane) were mixed during 48 h to obtain mutually saturated phases. The stock solutions containing the drug were prepared in buffer pH 7.4 saturated with the organic solvent. Both aliquots of the aqueous stock solution and organic solvent were placed in screwed glass vials and mixed at 310.2 ± 0.5 K during 3 days. The concentrations of the stock solutions were approximately 6.0 × 10^−3 M for both systems. The volumes of the phases were 3:3 in the 1-octanol/buffer pH 7.4 systems and 6:3 and 10:3 in the n-hexane/buffer pH 7.4 systems, without and with cyclodextrins, respectively. After mixing, the equilibrium was achieved; the vials were maintained at 310.2 ± 0.5 K, and the phases were separated from each other. The drug concentrations were determined using spectrophotometer (Cary-50 Varian, Palo Alto, CA, USA, Software Version 3.00 (339)). The experiments were carried out at least four-fold with an accuracy of 2–4%. The distribution coefficients were calculated using the following equation:(6) DappOrg/buf=C2Org/buf⋅V^buf/Org/C2buf/Org⋅V^Org/buf where DappOrg/buf is the distribution coefficient calculated from the concentrations of the compounds expressed in molar scale, C2Org/buf and C2buf/Org are the molar concentrations of the drug in the mutually saturated organic solvent/buffer and buffer/organic solvent phases, respectively, and V^buf/Org and V^Org/buf are the volumes of the saturated buffer and organic solvent phases, respectively. In addition, the ΔlogD parameters were estimated taking into account the distribution coefficients both in the 1-octanol/buffer pH 7.4 and n-hexane/buffer H 7.4 systems. As Abraham et al. stated, the difference between the distribution parameters in these systems ( ΔlogD ) can be applied to assess the specific interactions including a hydrogen-bonding impact to the drug transport properties and can be calculated as follows:(7) ΔlogD=logDappoct/buf−logDapphex/buf

The nature of data set [4]: Shake-flask distribution in the n-hexane/buffer pH 7.4 system. The format is physicochemical. As to the method: as §1
Setting [5] is: from 1-Octanol/Buffer pH 7.4 System.
The mark [6] stands for this setting: from n-hexane/buffer pH 7.4 system.
[7] abbreviates: 310.2 K, cyclodextrin in buffer phase as in the label.
Where [8] appears, read: V(oct):V(buf)= 3:3, molar concentration × 10^3.

The record followed here is PMC10224004, “Modulation of Distribution and Diffusion through the Lipophilic Membrane with Cyclodextrins Exemplified by a Model Pyridinecarboxamide Derivative” (Pharmaceutics, 2023).

Several values for one entry are separate records, joined by “and”; a condition that tells them apart may be missing. Identical values can stand only once.

As for `CC(C)NNC(=O)c1ccncc1` [IPN, N′-isopropyl isonicotinic hydrazide], in data set [1] (setting [5]), the “Association constant KC of IPN complex with HP-β-CD” value was found to be 0.899 ± 0.022; the “Association constant KC of IPN complex with M-β-CD” value stood at 0.479 ± 0.109; the “α (parameter indicating the complex stoichiometry), IPN with HP-β-CD” value worked out at 1.004 ± 0.014; the “α (parameter indicating the complex stoichiometry), IPN with M-β-CD” value was 1.000 ± 0.065. Besides, in data set [1] (setting [6]), the “Association constant KC of IPN complex with HP-β-CD” value amounted to 1.536 ± 0.128; the “Association constant KC of IPN complex with M-β-CD” value was found to be 1.311 ± 0.241; the “α (parameter indicating the complex stoichiometry), IPN with HP-β-CD” value is reported as 1.087 ± 0.076; the “α (parameter indicating the complex stoichiometry), IPN with M-β-CD” value stood at 1.057 ± 0.143. In data set [2] (298.2 K), the TΔStr298.2 was -0.884 kcal/mol and the ΔGtr298.2 was -3.78 kcal/mol. For the same compound, the ζHtr in data set [2] (298.2 K (first value of cell)) was 84.1%. The compound also displayed a ΔHtr298.2/310.2 in data set [2] (298.2 K and 310.2 K) of -4.66 kcal/mol. In data set [2] (310.2 K), the TΔStr310.2 is -0.932 kcal/mol and the ΔGtr310.2 was -3.73 kcal/mol. This compound also yielded a ζHtr in data set [2] (310.2 K (second value of cell)) of 83.3%. Besides, in data set [3] (setting [7]), the Dappoct/buff was 2.651 ± 0.093; the logDappoct/buff was 0.423 ± 0.015 and 0.423. Besides, in data set [3] (setting [8]), the “Molar concentration C2 buf/oct ∙10^3 (aqueous phase)” value is on record as 1.69 ∙10^3 and the “Molar concentration C2 oct/buf ∙10^3 (organic phase)” value is 4.48 ∙10^3. This compound showed a logDapphex/buff in data set [4] (setting [7]) of −2.907. Also, the “Dapphex/buff ·10^4” value in data set [4] (310.2 K, value = D·10^4, cyclodextrin in buffer phase as in the label) is recorded as 12.400 ± 0.191 ·10^4. Also, the “Molar concentration C2 buf/hex ∙10^3 (aqueous phase)” value in data set [4] (V(hex):V(buf)= 6:3 without and 10:3 with cyclodextrins, molar concentration × 10^3) is reported as 6.46 ∙10^3. The “Molar concentration C2 hex/buf ∙10^5 (organic phase)” value in data set [4] (V(hex):V(buf)= 6:3 without and 10:3 with cyclodextrins, molar concentration × 10^5) is recorded as 1.60 ∙10^5.
